Measured values published in patent US10681909B2, “Herbicidal triazoles” (FMC Corporation, priority 2014, dated 2020).

Tests used:
ryegrass, Italian [1] = assay: Test A postemergence; format: in vivo, Lolium multiflorum; conditions: 0 to 100 scale (0 no effect, 100 complete control), approx. 10 d
Outline: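 Ratings reflect visual injury after ~10 d in greenhouse, 0 = no effect, 100 = complete control. Postemergence treatment was applied to one- to two-leaf seedlings; preemergence treatment was a directed soil spray at planting.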

ryegrass, Italian [2] = assay: Test C preemergence; format: in vivo, Lolium multiflorum; conditions: for Ryegrass, Italian plant response rating (0 to 100): Preemergence, visual rating after 13 to 15 d; for Plant response rating (scale of 0 to 100 where 0 is no effect and 100 is complete control): Ryegrass, Italian, preemergence
Source text: (§1) Seeds of plant species selected from blackgrass (Alopecurus myosuroides), ryegrass, Italian (Italian ryegrass, Lolium multiflorum), wheat (winter wheat, Triticum aestivum), galium (catchweed bedstraw, Galium aparine), corn (Zea mays), crabgrass, large (large crabgrass, Digitaria sanguinalis), foxtail, giant, (giant foxtail, Setaria faberii), johnsongrass (Sorghum halepense), lambsquarters (Chenopodium album), morningglory (Ipomoea coccinea), nutsedge, yellow (yellow nutsedge, Cyperus esculentus), pigweed (Amaranthus retroflexus), ragweed (common ragweed, Ambrosia elatior), soybean (Glycine max), barnyardgrass (Echinochloa crus-galli), oilseed rape (Brassica napus), waterhemp (common waterhemp, Amaranthus rudis), and velvetleaf (Abutilon theophrasti) were planted into a blend of loam soil and sand and treated preemergence with test chemicals formulated in a non-phytotoxic solvent mixture which included a surfactant. At the same time, plants selected from these crop and weed species and also chickweed (common chickweed, Stellaria media), oat, wild (wild oat, Avena fatua), and kochia (Kochia scoparia), were planted in pots containing Sunshine Redi-Earth® planting medium comprising spaghnum peat moss, vermiculite, starter nutrients and dolomitic limestone and treated with postemergence applications of test chemicals formulated in the same manner. Plants ranged in height from 2 to 18 cm (1- to 4-leaf stage) for postemergence treatments. […] A dash (-) response means no test result.

wheat (winter wheat) = assay: Test C preemergence; format: in vivo, Triticum aestivum; conditions: for Wheat plant response rating (0 to 100): Preemergence, visual rating after 13 to 15 d; for Plant response rating (scale of 0 to 100 where 0 is no effect and 100 is complete control): Wheat, preemergence, 250 g ai/ha
Source text: as §1

speedwell = assay: Test D preemergence; format: in vivo, Veronica persica; conditions: for Plant response rating (0 to 100), Speedwell: 16 g ai/ha, 0 is no effect, 100 is complete control; for Plant response rating: Speedwell: scale 0 to 100
Source text: (§2) Seeds of plant species selected from bluegrass (annual bluegrass, Poa annua), blackgrass (Alopecurus myosuroides), canarygrass (Phalaris minor), chickweed (common chickweed, Stellaria media), galium (catchweed bedstraw, Galium aparine), bromegrass, down (downy bromegrass, Bromus tectorum), Russian thistle (Salsola kali), field poppy (Papaver rhoeas), field violet (Viola arvensis), foxtail, green (green foxtail, Setaria viridis), deadnettle (henbit deadnettle, Lamium amplexicaule), ryegrass, Ital. (Italian ryegrass, Lolium multiflorum), kochia (Kochia scoparia), lambsquarters (Chenopodium album), oilseed rape (Brassica napus), pigweed (Amaranthus retroflexus), chamomile (scentless chamomile, Matricaria inodora), speedwell (bird's-eye speedwell, Veronica persica), barley, spring (spring barley, Hordeum vulgare), wheat, spring (spring wheat, Triticum aestivum), buckwheat, wild (wild buckwheat, Polygonum convolvulus), wild mustard (Sinapis arvensis), oat, wild (wild oat, Avena fatua), radish, wild (wild radish, Raphanus raphanistrum), […]), barley, winter (winter barley, Hordeum vulgare), and wheat, winter (winter wheat, Triticum aestivum) were planted into a silt loam soil and treated preemergence with test chemicals formulated in a non-phytotoxic solvent mixture which included a surfactant. At the same time, these species were planted in pots containing Sunshine Redi-Earth® planting medium comprising spaghnum peat moss, vermiculite, starter nutrients and dolomitic limestone and treated with postemergence applications of the test chemicals formulated in the same manner. Plants ranged in height from 2 to 18 cm (1- to 4-leaf stage). Treated plants and controls were maintained in a controlled growth environment for 14 to 21 d after which time all species were compared to controls and visually evaluated. […] A dash (-) response means no test result.

radish, wild = assay: Test D preemergence; format: in vivo, Raphanus raphanistrum; conditions: for Plant response rating (0 to 100), Radish, Wild: 16 g ai/ha, 0 is no effect, 100 is complete control; for Plant response rating: Radish, Wild: scale 0 to 100
Source text: as §2

blackgrass = assay: Test D postemergence; format: in vivo, Alopecurus myosuroides; conditions: scale 0 to 100
Source text: as §2

lambsquarters = assay: Test D postemergence; format: in vivo, Chenopodium album; conditions: scale 0 to 100
Source text: as §2

windgrass = assay: Test D postemergence; format: in vivo, Apera spica-venti; conditions: scale 0 to 100
Source text: as §2

Compound | Plant response rating, Ryegrass, Italian (ryegrass, Italian [1]; 125 g ai/ha) | Ryegrass, Italian plant response rating (0 to 100) (ryegrass, Italian [2]; 31 g ai/ha) | Ryegrass, Italian plant response rating (0 to 100) (ryegrass, Italian [2]; 62 g ai/ha) | Plant response rating (scale of 0 to 100 where 0 is no effect and 100 is complete control) (ryegrass, Italian [2]; 125 g ai/ha) | Plant response rating (scale of 0 to 100 where 0 is no effect and 100 is complete control) (ryegrass, Italian [2]; 250 g ai/ha) | Wheat plant response rating (0 to 100) (wheat (winter wheat); 31 g ai/ha) | Wheat plant response rating (0 to 100) (wheat (winter wheat); 62 g ai/ha) | Plant response rating (scale of 0 to 100 where 0 is no effect and 100 is complete control) (wheat (winter wheat)) | Plant response rating (0 to 100), Speedwell (speedwell) | Plant response rating: Speedwell (speedwell; 62 g ai/ha) | Plant response rating: Speedwell (speedwell; 125 g ai/ha) | Plant response rating: Radish, Wild (radish, wild; 62 g ai/ha) | Plant response rating: Radish, Wild (radish, wild; 125 g ai/ha) | Plant response rating: Blackgrass (blackgrass; 16 g ai/ha) | Plant response rating: Blackgrass (blackgrass; 31 g ai/ha) | Plant response rating: Blackgrass (blackgrass; 62 g ai/ha) | Plant response rating: Blackgrass (blackgrass; 125 g ai/ha) | Plant response rating: Lambsquarters (lambsquarters; 16 g ai/ha) | Plant response rating: Lambsquarters (lambsquarters; 31 g ai/ha) | Plant response rating: Lambsquarters (lambsquarters; 62 g ai/ha) | also measured
Fc1ccc(-c2nc(OCC(F)(F)F)n(Cc3ccnc(C(F)(F)F)c3)n2)cc1 [Compound 30] | 50 | 5 | 60 | 70 | 70 | 0 | 0 | 35 | 100 | 100 | 100 | 95 | 100 | 45 | 60 | 65 | 75 | 85 | 90 | 95 | Plant response rating, Ryegrass, Italian (ryegrass, Italian [1]; 500 g ai/ha): 80; Plant response rating (0 to 100), Radish, Wild (radish, wild): 65; Plant response rating: Lambsquarters (lambsquarters; 125 g ai/ha): 95; Plant response rating: Windgrass (windgrass; 16 g ai/ha): 45; Plant response rating: Windgrass (windgrass; 31 g ai/ha): 65; Plant response rating: Windgrass (windgrass; 62 g ai/ha): 75; Plant response rating: Windgrass (windgrass; 125 g ai/ha): 85
FC(F)(F)COc1nc(-c2ccc(Cl)cc2)nn1Cc1ccnc(C(F)(F)F)c1 [Compound 31] | 50 | 50 | 60 | 90 | 90 | 0 | 5 | 35 | 100 | 100 | 100 | 100 | 100 | 45 | 65 | 70 | 80 | 75 | 95 | 85 | Plant response rating, Ryegrass, Italian (ryegrass, Italian [1]; 500 g ai/ha): 80; Plant response rating: Lambsquarters (lambsquarters; 125 g ai/ha): 90; Plant response rating: Windgrass (windgrass; 16 g ai/ha): 60; Plant response rating: Windgrass (windgrass; 31 g ai/ha): 70; Plant response rating: Windgrass (windgrass; 62 g ai/ha): 75; Plant response rating: Windgrass (windgrass; 125 g ai/ha): 80
CCOc1nc(-c2ccc(C(F)(F)F)cc2)nn1Cc1ccnc(C(F)(F)F)c1 [Compound 35, 4-[[5-ethoxy-3-[4-(trifluoromethyl)phenyl]-1H-1,2,4-triazole-1-yl]methyl]-2-(trifluoromethyl)pyridine] | 60 | 70 | 85 | 90 | 90 | 5 | 5 | 35 | 100 | 100 | 100 | 85 | 100 | 35 | 55 | 70 | 80 | 85 | 95 | 95 | Plant response rating, Ryegrass, Italian (ryegrass, Italian [1]; 31 g ai/ha): 30; Plant response rating (0 to 100), Radish, Wild (radish, wild): 65; Plant response rating: Lambsquarters (lambsquarters; 125 g ai/ha): 100; Plant response rating: Windgrass (windgrass; 16 g ai/ha): 55; Plant response rating: Windgrass (windgrass; 31 g ai/ha): 75; Plant response rating: Windgrass (windgrass; 62 g ai/ha): 80; Plant response rating: Windgrass (windgrass; 125 g ai/ha): 90
